System: A549-NF-κB-SEAP reporter cells
Assay: Inhibition of NF-κB-induced inflammation ([…] NINA Instant Assay, SEAP reporter)
Type: cell-based
Settings: NF-κB inflammation assay
From the text: For the determination of anti-inflammatory activity of the compounds the […]® NINA Instant Assay from Cell Culture Service GmBH was used. This assay is based on recombinant A549-NF-κB-SEAP reporter cells preseeded in 96-well flat bottom plates. As the transfected reportergen for SEAP (secreted embryonic alkaline phosphatase) is under transcriptional control of a NF-κB-responsive element, the expression of this reporter is activated upon stimulation with TNF-α. SEAP secretion into the culture supernatant can be detected by the chemiluminescent substrate CSPD®. Test compounds that inhibit the NF-κB activation show reduced SEAP activity and reduced luminescent readout.
Following 18 h of reactivation at 37° C., 5% CO2 and 90% relative humidity, the cells were incubated with 0.01 up to 100 μM of test compound for 4.5 h before stimulation with 2 ng/ml TNF-α. After stimulation with TNF-α for 22 h endogenous phosphatases were inactivated and CSPD® substrate was supplied for 40 min. SEAP activity then was quantified by measuring luminescence as relative light units (RLU) using a Tecan Ultra reader. Each data point was recorded in quadruplicates and EC50 values were calculated via fitting function and the Microsoft Excel Solver.

SMILES	Biological activity (inhibition in the NF-κB inflammation assay)
CCCS(=O)(=O)c1ccc2[nH]c(NC(=O)c3csc(C4CCN(C(=O)c5ccccc5OC(F)(F)F)CC4)n3)nc2c1 [compound 52]	+++ (“+++” stands for 90-100% inhibition)
NC(=Nc1nc2ccccc2[nH]1)NC(=O)c1csc(NC(=O)c2c(F)cccc2F)n1 [compound 57]	+++ (“+++” stands for 90-100% inhibition)
O=C(Nc1nc2ccc([N+](=O)[O-])cc2[nH]1)c1csc(NC(=O)c2ccccc2OC(F)(F)F)n1 [compound 43]	+++ (“+++” stands for 90-100% inhibition)
N=C(NC(=O)c1csc(C2CCN(C(=O)c3ccccc3OC(F)(F)F)CC2)n1)Nc1nc2ccccc2[nH]1 [compound 36]	+++ (“+++” stands for 90-100% inhibition)
NC(=Nc1nc2ccccc2[nH]1)NC(=O)c1csc(NC(=O)Nc2ccccc2OC(F)(F)F)n1 [compound 54]	+++ (“+++” stands for 90-100% inhibition)
CCCS(=O)(=O)c1ccc2[nH]c(NC(=O)c3csc(NC(=O)c4ccccc4OC(F)(F)F)n3)nc2c1 [compound 47]	+++ (“+++” stands for 90-100% inhibition)
NC(=Nc1nc2ccccc2[nH]1)NC(=O)c1csc(NC(=O)c2ccc(C(F)(F)F)cc2F)n1 [compound 53]	+++ (“+++” stands for 90-100% inhibition)

Same assay, conditions: compounds of formula (I); TNF-α stimulated reporter cells; test concentration not given

SMILES	Biological activity (NF-κB inflammation assay, inhibition)
O=C(c1csc(C2CCN(Cc3cccc(OC(F)(F)F)c3)CC2)n1)N1CCN(c2cccc(C(F)(F)F)c2)CC1 [compound 115]	++ (“++” means 80-90%)
COc1nc(OC)nc(N2CCN(C(=O)c3csc(C4CCN(Cc5ccccc5)CC4)n3)CC2)n1 [compound 120]	+ (“+” stands for 50-80% inhibition)
O=C(c1csc(C2CCN(S(=O)(=O)c3ccc(Br)cc3)CC2)n1)N1CCN(c2cccc(C(F)(F)F)c2)CC1 [compound 199]	+ (“+” stands for 50-80% inhibition)
O=C(c1csc(C2CCN(S(=O)(=O)c3cccs3)CC2)n1)N1CCN(c2cccc(C(F)(F)F)c2)CC1 [compound 194]	+ (“+” stands for 50-80% inhibition)
Cn1nc(C(C)(C)C)cc1C(=O)N1CCC(c2nc(C(=O)N3CCN(c4cccc(C(F)(F)F)c4)CC3)cs2)CC1 [compound 216]	++ (“++” means 80-90%)
COc1ccc(N2CCC(c3nc(C(=O)N4CCN(c5cccc(C(F)(F)F)c5)CC4)cs3)CC2)c(OC)c1 [compound 153]	+ (“+” stands for 50-80% inhibition)
O=C(c1csc(C2CCN(Cc3ccc(OC(F)(F)F)cc3)CC2)n1)N1CCN(c2cccc(C(F)(F)F)c2)CC1 [compound 172]	+ (“+” stands for 50-80% inhibition)
COc1ccc(N2CCC(c3nc(C(=O)N4CCN(c5cccc(C(F)(F)F)c5)CC4)cs3)CC2)cc1OC [compound 159]	+ (“+” stands for 50-80% inhibition)
N#Cc1ccc(N2CCC(c3nc(C(=O)N4CCN(c5cccc(C(F)(F)F)c5)CC4)cs3)CC2)cc1 [compound 112]	+ (“+” stands for 50-80% inhibition)
O=C(Cc1ccc(F)cc1)N1CCC(c2nc(C(=O)N3CCC(n4nnc5cc(C(F)(F)F)ccc54)CC3)cs2)CC1 [compound 181]	+ (“+” stands for 50-80% inhibition)
O=C(c1csc(C2CCN(C(=O)c3ccccc3OC(F)(F)F)CC2)n1)N(CCO)Cc1ccccc1 [compound 148]	++ (“++” means 80-90%)
COc1nc(OC)nc(N2CCN(C(=O)c3csc(C4CCNCC4)n3)CC2)n1 [compound 152]	++ (“++” means 80-90%)
O=C(c1csc(C2CCN(Cc3cc(C(F)(F)F)cc(C(F)(F)F)c3)CC2)n1)N1CCN(c2cccc(C(F)(F)F)c2)CC1 [compound 175]	+ (“+” stands for 50-80% inhibition)
COc1cc(C(=O)N2CCC(c3nc(C(=O)N4CCN(c5cccc(C(F)(F)F)c5)CC4)cs3)CC2)cc(OC)c1OC [compound 225]	+ (“+” stands for 50-80% inhibition)
COc1cccc(N2CCC(c3nc(C(=O)N4CCN(c5cccc(C(F)(F)F)c5)CC4)cs3)CC2)c1 [compound 178]	+ (“+” stands for 50-80% inhibition)
CC(=O)Nc1ccc(S(=O)(=O)N2CCC(c3nc(C(=O)N4CCN(c5cccc(C(F)(F)F)c5)CC4)cs3)CC2)cc1 [compound 207]	+ (“+” stands for 50-80% inhibition)
O=C(c1csc(C2CCN(S(=O)(=O)Cc3ccccc3)CC2)n1)N1CCN(c2cccc(C(F)(F)F)c2)CC1 [compound 198]	+ (“+” stands for 50-80% inhibition)
COc1cc(N2CCN(C(=O)c3csc(C4CCN(C(=O)c5ccccc5OC(F)(F)F)CC4)n3)CC2)nc(OC)n1 [compound 130]	+ (“+” stands for 50-80% inhibition)
O=C(c1csc(C2CCN(c3ccccc3)CC2)n1)N1CCN(c2cccc(C(F)(F)F)c2)CC1 [compound 119]	+ (“+” stands for 50-80% inhibition)
O=C(Cc1ccc(F)cc1)N1CCC(c2nc(C(=O)N3CCN(c4ccccc4)CC3)cs2)CC1 [compound 180]	+ (“+” stands for 50-80% inhibition)
O=C(c1csc(C2CCN(c3cc(C(F)(F)F)ccn3)CC2)n1)N1CCN(c2cccc(C(F)(F)F)c2)CC1 [compound 118]	+ (“+” stands for 50-80% inhibition)
Cc1nnsc1C(=O)N1CCC(c2nc(C(=O)N3CCN(c4cccc(C(F)(F)F)c4)CC3)cs2)CC1 [compound 221]	+ (“+” stands for 50-80% inhibition)
O=C(c1csc(C2CCN(S(=O)(=O)c3ccc(Cl)cc3Cl)CC2)n1)N1CCN(c2cccc(C(F)(F)F)c2)CC1 [compound 200]	+ (“+” stands for 50-80% inhibition)
COc1nc(OC)nc(N2CCC(c3nc(C(=O)N4CCN(c5cccc(C(F)(F)F)c5)CC4)cs3)CC2)n1 [compound 176]	+ (“+” stands for 50-80% inhibition)
O=C(O)C1=C(C(=O)N2CCC(c3nc(C(=O)N4CCN(c5cccc(C(F)(F)F)c5)CC4)cs3)CC2)CCCC1 [compound 190]	+ (“+” stands for 50-80% inhibition)
O=C(O)c1cccnc1C(=O)N1CCC(c2nc(C(=O)N3CCN(c4cccc(C(F)(F)F)c4)CC3)cs2)CC1 [compound 183]	+ (“+” stands for 50-80% inhibition)
O=C(c1csc(C2CCN(S(=O)(=O)c3ccccc3Br)CC2)n1)N1CCN(c2cccc(C(F)(F)F)c2)CC1 [compound 196]	+ (“+” stands for 50-80% inhibition)

Same assay, conditions: compounds of formula (II); TNF-α stimulated reporter cells; test concentration not given

SMILES	Biological activity (NF-κB inflammation assay, inhibition)
O=C(CCC1CCCC1)NCC1CCN(c2nc(C(=O)N3CCN(c4cccc(C(F)(F)F)c4)CC3)cs2)CC1 [compound 100]	+ (“+” stands for 50-80% inhibition)
O=C(CCC1CCCC1)N1CCN(c2nc(C(=O)N3CCN(c4cccc(C(F)(F)F)c4)CC3)cs2)CC1 [compound 37]	+++ (“+++” stands for 90-100% inhibition)
O=C(c1cc(C(F)(F)F)cc(C(F)(F)F)c1)N1CCN(c2nc(C(=O)N3CCN(c4cccc(C(F)(F)F)c4)CC3)cs2)CC1 [compound 59]	+ (“+” stands for 50-80% inhibition)
N#Cc1ccc(C(=O)N2CCN(c3nc(C(=O)N4CCN(c5cccc(C(F)(F)F)c5)CC4)cs3)CC2)cc1 [compound 61]	+++ (“+++” stands for 90-100% inhibition)
CC(C)(C)OC(=O)N1CCN(c2nc(C(=O)N3CCN(c4cccc(C(F)(F)F)c4)CC3)cs2)CC1 [compound 63]	++ (“++” means 80-90%)
CC(=O)c1ccc(N2CCN(c3nc(C(=O)N4CCN(c5cccc(C(F)(F)F)c5)CC4)cs3)CC2)cc1 [compound 66]	++ (“++” means 80-90%)

Same assay, conditions: compounds of formula (Ia); TNF-α stimulated reporter cells; test concentration not given

SMILES	Biological activity (NF-κB inflammation assay, inhibition)
O=C(NCCc1cccs1)N1CCC(c2nc(C(=O)N3CCN(c4cccc(C(F)(F)F)c4)CC3)cs2)CC1 [compound 77]	+++ (“+++” stands for 90-100% inhibition)
COc1cccc(NC(=O)N2CCC(c3nc(C(=O)N4CCN(c5cccc(C(F)(F)F)c5)CC4)cs3)CC2)c1 [compound 80]	+ (“+” stands for 50-80% inhibition)
O=C(Nc1ccccc1OC(F)(F)F)N1CCC(c2nc(C(=O)N3CCN(c4cccc(C(F)(F)F)c4)CC3)cs2)CC1 [compound 79]	+++ (“+++” stands for 90-100% inhibition)
O=C(Nc1ccccc1)N1CCC(c2nc(C(=O)N3CCN(c4cccc(C(F)(F)F)c4)CC3)cs2)CC1 [compound 134]	+ (“+” stands for 50-80% inhibition)

Same assay, conditions: compounds of formula (Ib); TNF-α stimulated reporter cells; test concentration not given

SMILES	Biological activity (NF-κB inflammation assay, inhibition)
Cc1sc(C2CCN(C(=O)c3ccccc3OC(F)(F)F)CC2)nc1CC(=O)N1CCN(c2cccc(Cl)c2)CC1 [compound 128]	+++ (“+++” stands for 90-100% inhibition)

Same assay, conditions: compounds of formula (Ic); TNF-α stimulated reporter cells; test concentration not given

SMILES	Biological activity (NF-κB inflammation assay, inhibition)
CNc1ccc(Cl)cc1C1c2ccccc2CCN1C(=O)c1csc(C2CCN(C(=O)Cc3ccc(F)cc3)CC2)n1 (stereo not shown) [compound 235]	+ (“+” stands for 50-80% inhibition)

— patent publication US7601745B2, “Heterocyclic NF-kB inhibitors” (4SC AG, priority 2004, dated 2009)
